Data from patent US20140024638A1, “TREATMENT OF COGNITIVE DYSFUNCTION IN SCHIZOPHRENIA” (TARGACEPT, INC., priority 2011, published 2014).

Legend:
[1] = water solubility (salt screening); type: physicochemical
[2] = hygroscopicity (salt screening); type: physicochemical

| SMILES | water solubility [1] | hygroscopicity [2] |
| --- | --- | --- |
| Cc1ccc(S(=O)(=O)O)cc1.O=C(N[C@@H]1C2CCN(CC2)[C@H]1Cc1cccnc1)c1cc2ccccc2o1 [p-toluenesulfonic acid salt, (2S,3R)—N-(2-((3-pyridinyl)methyl)-1-azabicyclo[2.2.2]oct-3-yl)benzofuran-2-carboxamide p-toluenesulfonate] | good | low |
| O=C(N[C@@H]1C2CCN(CC2)[C@H]1Cc1cccnc1)c1cc2ccccc2o1.O=P(O)(O)O [phosphoric acid salt] | – | low |
